From patent publication US5290347A, “Salt-forming type dye, and its concentrated solution composition and ink composition” (Orient Chemical Industries, Ltd., priority 1991, dated 1994) come the findings set out here.

A short description of data set [1]: Solubility of the salt-forming type dyes (Tables 1-3). The conditions noted are these: for Solubility, Ethanol: solvent: ethanol; for Solubility, Glycol ether: solvent: glycol ether. Type of data set: physicochemical.
Data set [2] in a line: Solubility of the comparative dyes (Table 4), evaluation A-D. The conditions noted are these: for Solubility, Glycol ether: solvent: glycol ether; for Solubility, Lower alcohol: solvent: lower alcohol; for Solubility, Water: solvent: water. Format: physicochemical.

In the case of `COc1cc(N=Nc2cccc(P(=O)(O)O)c2)c(C)cc1N=Nc1c(S(=O)(=O)O)cc2ccc(N)cc2c1O` [Black No. 1], in data set [1], the “Solubility, Water:Solvent = 2:8” value was determined as 15 g/100 ml; the “Solubility, Ethanol” value is 3 g/100 ml; the “Solubility, Glycol ether” value worked out at 10 g/100 ml.

With `COc1cc(N=Nc2cccc(P(=O)(O)O)c2)c(C)cc1N=Nc1c(S(=O)(=O)O)cc2ccc(N)cc2c1O` [Black No. 2], in data set [1], the “Solubility, Water:Solvent = 2:8” value came out at 10 g/100 ml; the “Solubility, Ethanol” value worked out at 5 g/100 ml; the “Solubility, Glycol ether” value was found to be 15 g/100 ml.

As to `Nc1ccc2cc(S(=O)(=O)O)c(N=Nc3ccc(N=Nc4cccc(P(=O)(O)O)c4)c4ccc(S(=O)(=O)O)cc34)c(O)c2c1` [Black No. 3], in data set [1], the “Solubility, Water:Solvent = 2:8” value was 20 g/100 ml; the “Solubility, Ethanol” value was 5 g/100 ml; the “Solubility, Glycol ether” value came out at 30 g/100 ml.

For `Nc1cc2c(O)c(N=Nc3ccc(N=Nc4cccc(P(=O)(O)O)c4)c4ccc(S(=O)(=O)O)cc34)c(S(=O)(=O)O)cc2cc1S(=O)(=O)O` [Black No. 4], in data set [1], the “Solubility, Water:Solvent = 2:8” value is 30 g/100 ml; the “Solubility, Ethanol” value was determined as 5 g/100 ml; the “Solubility, Glycol ether” value came to 30 g/100 ml.

`Nc1cc2c(O)c(N=Nc3ccc(N=Nc4cccc(P(=O)(O)O)c4)c4ccc(S(=O)(=O)O)cc34)c(S(=O)(=O)O)cc2cc1S(=O)(=O)O` [Black No. 5]: in data set [1], the “Solubility, Water:Solvent = 2:8” value is reported as 10 g/100 ml; the “Solubility, Ethanol” value came to 10 g/100 ml; the “Solubility, Glycol ether” value is listed as 30 g/100 ml.

Turning to `CC1(C)Nc2cccc3c(N=Nc4cc(S(=O)(=O)O)cc5cc(S(=O)(=O)O)c(N=Nc6cccc(P(=O)(O)O)c6)c(O)c45)ccc(c23)N1` [Black No. 6], in data set [1], the “Solubility, Water:Solvent = 2:8” value came out at 10 g/100 ml; the “Solubility, Ethanol” value is given as 10 g/100 ml; the “Solubility, Glycol ether” value was 15 g/100 ml.

As for `Nc1ccc2cc(S(=O)(=O)O)cc(O)c2c1N=Nc1cc(S(=O)(=O)O)cc2cc(S(=O)(=O)O)c(N=Nc3cccc(P(=O)(O)O)c3)c(O)c12` [Black No. 7], in data set [1], the “Solubility, Water:Solvent = 2:8” value is 30 g/100 ml; the “Solubility, Ethanol” value came out at 3 g/100 ml; the “Solubility, Glycol ether” value was 20 g/100 ml.

As for `Nc1ccc2cc(S(=O)(=O)O)c(N=Nc3ccc(N=Nc4cccc(P(=O)(O)O)c4)c4ccc(S(=O)(=O)O)cc34)c(O)c2c1` [Black No. 8], in data set [1], the “Solubility, Water:Solvent = 2:8” value stood at 20 g/100 ml; the “Solubility, Ethanol” value is 8 g/100 ml; the “Solubility, Glycol ether” value was 30 g/100 ml.

Turning to `Nc1c(N=Nc2cccc(P(=O)(O)O)c2)c(S(=O)(=O)O)cc2cc(S(=O)(=O)O)c(N=Nc3cccc(P(=O)(O)O)c3)c(O)c12` [Blue No. 1], in data set [1], the “Solubility, Water:Solvent = 2:8” value amounted to 30 g/100 ml; the “Solubility, Ethanol” value is given as 3 g/100 ml; the “Solubility, Glycol ether” value was determined as 25 g/100 ml.

Turning to `Nc1cc(S(=O)(=O)O)cc2cc(S(=O)(=O)O)c(N=Nc3ccc(N=Nc4cccc(P(=O)(O)O)c4)c4ccc(O)cc34)c(O)c12` [Blue No. 2], in data set [1], the “Solubility, Water:Solvent = 2:8” value was 30 g/100 ml; the “Solubility, Ethanol” value is recorded as 5 g/100 ml; the “Solubility, Glycol ether” value worked out at 25 g/100 ml.

Turning to `COc1cc(N=Nc2cccc(P(=O)(O)O)c2)c(C)cc1N=Nc1c(S(=O)(=O)O)cc2cc(S(=O)(=O)O)cc(N)c2c1O` [Blue No. 3], in data set [1], the “Solubility, Water:Solvent = 2:8” value is reported as 25 g/100 ml; the “Solubility, Ethanol” value is 10 g/100 ml; the “Solubility, Glycol ether” value was found to be 30 g/100 ml.

As for `O=P(O)(O)c1cccc(N=Nc2ccc(N=Nc3c(O)ccc4cc(S(=O)(=O)O)cc(S(=O)(=O)O)c34)cc2)c1` [Red No. 1], in data set [1], the “Solubility, Water:Solvent = 2:8” value is recorded as 30 g/100 ml; the “Solubility, Ethanol” value is 10 g/100 ml; the “Solubility, Glycol ether” value is 20 g/100 ml.

Turning to `CC(=O)Nc1cc(S(=O)(=O)O)cc2cc(S(=O)(=O)O)c(N=Nc3cccc(P(=O)(O)O)c3)c(O)c12` [Red No. 2], in data set [1], the “Solubility, Water:Solvent = 2:8” value is on record as 30 g/100 ml; the “Solubility, Ethanol” value is 8 g/100 ml; the “Solubility, Glycol ether” value was 25 g/100 ml.

`O=P(O)(O)c1cccc(N=Nc2c(S(=O)(=O)O)cc3cc(Nc4ccc5c(O)c(N=Nc6cccc(P(=O)(O)O)c6)c(S(=O)(=O)O)cc5c4)ccc3c2O)c1` [Red No. 3]: in data set [1], the “Solubility, Water:Solvent = 2:8” value came out at 30 g/100 ml; the “Solubility, Ethanol” value is on record as 5 g/100 ml; the “Solubility, Glycol ether” value turned out to be 25 g/100 ml.

With `Nc1cc(N=Nc2cccc(P(=O)(O)O)c2)c2c(O)cc(S(=O)(=O)O)cc2c1N=Nc1cccc(P(=O)(O)O)c1` [Red No. 4], in data set [1], the “Solubility, Water:Solvent = 2:8” value is listed as 30 g/100 ml; the “Solubility, Ethanol” value is given as 3 g/100 ml; the “Solubility, Glycol ether” value worked out at 30 g/100 ml.

On to `Cc1nn(-c2ccccc2)c(O)c1N=Nc1cccc(P(=O)(O)O)c1` [compound 1], for which, in data set [2], the “Solubility, Water:Solvent = 2:8” value is “C (dissolved in an amount of 5% or less)”; the “Solubility, Glycol ether” value is given as “C (dissolved in an amount of 5% or less)”; the “Solubility, Lower alcohol” value was “D (dissolved in an amount of 1% or less)”; the “Solubility, Water” value is given as “D (dissolved in an amount of 1% or less)”.

For `Cc1nn(-c2ccccc2)c(O)c1N=Nc1cccc(S(=O)(=O)O)c1` [compound 2], in data set [2], the “Solubility, Water:Solvent = 2:8” value is “C (dissolved in an amount of 5% or less)”; the “Solubility, Glycol ether” value was “B (dissolved in an amount of 5~10%)”; the “Solubility, Lower alcohol” value is “C (dissolved in an amount of 5% or less)”; the “Solubility, Water” value is “D (dissolved in an amount of 1% or less)”.

With `Nc1cc(S(=O)(=O)O)cc2cc(S(=O)(=O)O)c(N=Nc3ccc(N=Nc4cccc(S(=O)(=O)O)c4)c4ccc(O)cc34)c(O)c12` [compound 3], in data set [2], the “Solubility, Water:Solvent = 2:8” value was “C (dissolved in an amount of 5% or less)”; the “Solubility, Glycol ether” value is reported as “D (dissolved in an amount of 1% or less)”; the “Solubility, Lower alcohol” value is “D (dissolved in an amount of 1% or less)”; the “Solubility, Water” value was “A (dissolved in an amount of 10% or more)”.

Take `O=P(O)(O)c1cccc(N=Nc2ccc(N=Nc3c(O)ccc4cc(S(=O)(=O)O)cc(S(=O)(=O)O)c34)cc2)c1` [compound 4]: in data set [2], the “Solubility, Water:Solvent = 2:8” value is “C (dissolved in an amount of 5% or less)”; the “Solubility, Glycol ether” value was “C (dissolved in an amount of 5% or less)”; the “Solubility, Lower alcohol” value is “D (dissolved in an amount of 1% or less)”; the “Solubility, Water” value was “A (dissolved in an amount of 10% or more)”.

On to `Nc1cc2c(O)c(N=Nc3ccc(N=Nc4cccc(P(=O)(O)O)c4)c4ccc(S(=O)(=O)O)cc34)c(S(=O)(=O)O)cc2cc1S(=O)(=O)O` [compound 5], for which, in data set [2], the “Solubility, Water:Solvent = 2:8” value was “D (dissolved in an amount of 1% or less)”; the “Solubility, Glycol ether” value is reported as “C (dissolved in an amount of 5% or less)”; the “Solubility, Lower alcohol” value was “D (dissolved in an amount of 1% or less)”; the “Solubility, Water” value is “A (dissolved in an amount of 10% or more)”.

Consider `Nc1cc2c(O)c(N=Nc3ccc(N=Nc4cccc(P(=O)(O)O)c4)c4ccc(S(=O)(=O)O)cc34)c(S(=O)(=O)O)cc2cc1S(=O)(=O)O` [compound 6], for which, in data set [2], the “Solubility, Water:Solvent = 2:8” value is “C (dissolved in an amount of 5% or less)”; the “Solubility, Glycol ether” value was “B (dissolved in an amount of 5~10%)”; the “Solubility, Lower alcohol” value was “C (dissolved in an amount of 5% or less)”; the “Solubility, Water” value is “C (dissolved in an amount of 5% or less)”.

Consider `CC(=O)Nc1cc(S(=O)(=O)O)cc2cc(S(=O)(=O)O)c(N=Nc3cccc(P(=O)(O)O)c3)c(O)c12` [compound 7], for which, in data set [2], the “Solubility, Water:Solvent = 2:8” value is given as “C (dissolved in an amount of 5% or less)”; the “Solubility, Glycol ether” value was “D (dissolved in an amount of 1% or less)”; the “Solubility, Lower alcohol” value is “D (dissolved in an amount of 1% or less)”; the “Solubility, Water” value is “A (dissolved in an amount of 10% or more)”.

For the compound `Nc1cc(S(=O)(=O)O)cc2cc(S(=O)(=O)O)c(N=Nc3ccc(N=Nc4cccc(S(=O)(=O)O)c4)c4ccccc34)c(O)c12` [compound 8], in data set [2], the “Solubility, Water:Solvent = 2:8” value is listed as “D (dissolved in an amount of 1% or less)”; the “Solubility, Glycol ether” value is recorded as “B (dissolved in an amount of 5~10%)”; the “Solubility, Lower alcohol” value was “C (dissolved in an amount of 5% or less)”; the “Solubility, Water” value was “D (dissolved in an amount of 1% or less)”.
